Data: patent publication US8048825B2, “Haloalkylsulfonanilide derivatives or salt thereof, herbicide comprising the derivatives as active ingredient, and use of the herbicide” (Nihon Nohyaku Co., Ltd., priority 2006, dated 2011)

Assays:
Type in all cases: in vivo
[1] = tested on: Scirpus juncoides; assay: Herbicidal effect on paddy field weeds of post-emergence stage (Post), Test Example 2; conditions: one-leaf stage, 1000 g/ha as active ingredient, examined after 21 days
Source text: (§1) Criteria for herbicidal efficacy (growth inhibiting degree) and phytotoxicity. • 5 . . . 100% herbicidal effect, phytotoxicity. • 4 . . . 90%-99% herbicidal effect, phytotoxicity. • 3 . . . 70%-89% herbicidal effect, phytotoxicity. • 2 . . . 40%-69% herbicidal effect, phytotoxicity. • 1 . . . 1%-39% herbicidal effect, phytotoxicity. • 0 . . . 0% herbicidal effect, phytotoxicity.
(§2) 75 cm^2 plastic pots were filled with the soil (clay loam). Seeds of Scirpus juncoides and Echinochloa crus-galli, paddy weeds, were planted, and they were covered with 75 cm^3 of soil mixed with seeds of Lindernia procumbens and then filled with water depth of 5 cm and they were brought up in a greenhouse. When the test plants were at one-leaf stage, predetermined effective dosage (1000 g/ha as an active ingredient) of formulations comprising a compound of the present invention as an active ingredient was applied to the pot water. Then, they were brought up in a greenhouse and the herbicidal efficacy was examined after 21 days from the treatment by comparing with the result of an untreated group according to the criteria of Test Example 1. In the table, “-” means that the test was not performed.

[2] = tested on: Lindernia procumbens; assay: as above; conditions: one-leaf stage, 1000 g/ha as active ingredient, examined after 21 days
Source text: as §1, §2

[3] = tested on: Scirpus juncoides; assay: Herbicidal efficacy on paddy field weeds of pre-emergence stage (Pre), Test Example 1; conditions: 1000 g/ha as active ingredient, examined after 21 days
Description: (§3) 75 cm^2 plastic pots were filled with the soil (clay loam). Seeds of Scirpus juncoides, a paddy weed, were planted, and they were covered with 75 cm^3 of soil mixed with seeds of Lindernia procumbens and then filled with water depth of 5 cm. Next day, predetermined effective dosage (1000 g/ha as an active ingredient) of formulations comprising a compound of the present invention as an active ingredient which were prepared following Formulation Examples 1 to 4 was diluted with water and applied dropwise to the surface of the water. Then, they were brought up in a greenhouse and the herbicidal effect was examined after 21 days from the treatment by comparing with the result of an untreated group according to the following criteria. In the table, “-” means that the test was not performed.
as §1

[4] = tested on: Lindernia procumbens; assay: as above; conditions: 1000 g/ha as active ingredient, examined after 21 days
Description: as §3, §1

## CC1(c2c(F)cccc2F)CCN(Cc2ccccc2NS(=O)(=O)C(F)(F)F)C(=O)O1 (racemic) [Compound 1-439]
[1]
  Scirpus juncoides post (herbicidal effect): 4 (90%-99% herbicidal effect, phytotoxicity)
[2]
  Lindernia procumbens post (herbicidal effect): 5 (100% herbicidal effect, phytotoxicity)
[3]
  Scirpus juncoides pre (herbicidal effect): 5 (100% herbicidal effect, phytotoxicity)
[4]
  Lindernia procumbens pre (herbicidal effect): 5 (100% herbicidal effect, phytotoxicity)

## Cc1cccc(C)c1C1CCN(Cc2ccccc2NS(=O)(=O)C(F)(F)F)C(=O)O1 (centres unmarked) [Compound 1-360]
[1]
  Scirpus juncoides post (herbicidal effect): 4 (90%-99% herbicidal effect, phytotoxicity)
[2]
  Lindernia procumbens post (herbicidal effect): 5 (100% herbicidal effect, phytotoxicity)
[3]
  Scirpus juncoides pre (herbicidal effect): 5 (100% herbicidal effect, phytotoxicity)
[4]
  Lindernia procumbens pre (herbicidal effect): 5 (100% herbicidal effect, phytotoxicity)

## CC(C)COC(=O)N(c1ccccc1CN1CCC(C)(c2ccccc2)OC1=O)S(=O)(=O)C(F)(F)F (centres unmarked) [Compound 1-165]
[1]
  Scirpus juncoides post (herbicidal effect): 4 (90%-99% herbicidal effect, phytotoxicity)
[3]
  Scirpus juncoides pre (herbicidal effect): 4 (90%-99% herbicidal effect, phytotoxicity)
[4]
  Lindernia procumbens pre (herbicidal effect): 4 (90%-99% herbicidal effect, phytotoxicity)

## CN(c1ccccc1CN1CCC(C)(C)OC1=O)S(=O)(=O)C(F)(F)F [Compound 1-54]
[1]
  Scirpus juncoides post (herbicidal effect): 4 (90%-99% herbicidal effect, phytotoxicity)
[3]
  Scirpus juncoides pre (herbicidal effect): 4 (90%-99% herbicidal effect, phytotoxicity)

## COC(=O)N(c1ccccc1CN1CCC(c2c(F)cccc2F)OC1=O)S(=O)(=O)C(F)(F)F (centres unmarked) [Compound 1-350]
[1]
  Scirpus juncoides post (herbicidal effect): 4 (90%-99% herbicidal effect, phytotoxicity)
[2]
  Lindernia procumbens post (herbicidal effect): 5 (100% herbicidal effect, phytotoxicity)
[3]
  Scirpus juncoides pre (herbicidal effect): 5 (100% herbicidal effect, phytotoxicity)
[4]
  Lindernia procumbens pre (herbicidal effect): 5 (100% herbicidal effect, phytotoxicity)

## CN(c1ccccc1CN1CCC(c2ccccc2)OC1=O)S(=O)(=O)C(F)(F)F (centres unmarked) [Compound 1-246]
[4]
  Lindernia procumbens pre (herbicidal effect): 5 (100% herbicidal effect, phytotoxicity)

## O=C1OC(c2ccccc2Cl)CCN1Cc1ccccc1NS(=O)(=O)C(F)(F)F (centres unmarked) [Compound 1-305]
[1]
  Scirpus juncoides post (herbicidal effect): 4 (90%-99% herbicidal effect, phytotoxicity)
[2]
  Lindernia procumbens post (herbicidal effect): 5 (100% herbicidal effect, phytotoxicity)
[3]
  Scirpus juncoides pre (herbicidal effect): 4 (90%-99% herbicidal effect, phytotoxicity)
[4]
  Lindernia procumbens pre (herbicidal effect): 5 (100% herbicidal effect, phytotoxicity)

## CCOC(=O)N(c1ccccc1CN1CCC(C)(c2ccccc2)OC1=O)S(=O)(=O)C(F)(F)F (centres unmarked) [Compound 1-162]
[1]
  Scirpus juncoides post (herbicidal effect): 4 (90%-99% herbicidal effect, phytotoxicity)
[2]
  Lindernia procumbens post (herbicidal effect): 4 (90%-99% herbicidal effect, phytotoxicity)
[3]
  Scirpus juncoides pre (herbicidal effect): 4 (90%-99% herbicidal effect, phytotoxicity)
[4]
  Lindernia procumbens pre (herbicidal effect): 4 (90%-99% herbicidal effect, phytotoxicity)

## CCOCN(c1ccccc1CN1CC(C)(C)C(c2ccccc2)OC1=O)S(=O)(=O)C(F)(F)F (centres unmarked) [Compound 1-270]
[1]
  Scirpus juncoides post (herbicidal effect): 4 (90%-99% herbicidal effect, phytotoxicity)
[2]
  Lindernia procumbens post (herbicidal effect): 5 (100% herbicidal effect, phytotoxicity)
[4]
  Lindernia procumbens pre (herbicidal effect): 5 (100% herbicidal effect, phytotoxicity)

## CC(C)COC(=O)N(c1ccccc1CN1CCC(C2CC2)(C2CC2)OC1=O)S(=O)(=O)C(F)(F)F [Compound 1-154]
[4]
  Lindernia procumbens pre (herbicidal effect): 4 (90%-99% herbicidal effect, phytotoxicity)

## CN(c1ccccc1CN1CCC2(CCCC2)OC1=O)S(=O)(=O)C(F)(F)F [Compound 1-145]
[1]
  Scirpus juncoides post (herbicidal effect): 4 (90%-99% herbicidal effect, phytotoxicity)
[3]
  Scirpus juncoides pre (herbicidal effect): 4 (90%-99% herbicidal effect, phytotoxicity)

## CC1CCN(Cc2ccccc2NS(=O)(=O)C(F)(F)F)C(=O)OC1 (centres unmarked) [Compound No. 2-23, 6-methyl-3-[2-(trifluoromethanesulfonylamino)benzyl]-[1,3]-oxazepan-2-one]
[1]
  Scirpus juncoides post (herbicidal effect): 4 (90%-99% herbicidal effect, phytotoxicity)
[3]
  Scirpus juncoides pre (herbicidal effect): 4 (90%-99% herbicidal effect, phytotoxicity)
[4]
  Lindernia procumbens pre (herbicidal effect): 4 (90%-99% herbicidal effect, phytotoxicity)

## CCOCN(c1ccccc1CN1CCC(c2c(Cl)cccc2Cl)OC1=O)S(=O)(=O)C(F)(F)F (centres unmarked) [Compound 1-281]
[1]
  Scirpus juncoides post (herbicidal effect): 4 (90%-99% herbicidal effect, phytotoxicity)
[2]
  Lindernia procumbens post (herbicidal effect): 5 (100% herbicidal effect, phytotoxicity)
[4]
  Lindernia procumbens pre (herbicidal effect): 5 (100% herbicidal effect, phytotoxicity)

## CN(c1ccccc1CN1CCC(c2ccccc2C(F)(F)F)OC1=O)S(=O)(=O)C(F)(F)F (centres unmarked) [Compound 1-301]
[2]
  Lindernia procumbens post (herbicidal effect): 5 (100% herbicidal effect, phytotoxicity)
[4]
  Lindernia procumbens pre (herbicidal effect): 5 (100% herbicidal effect, phytotoxicity)

## CC(C)COC(=O)N(c1ccccc1CN1CCC(c2ccccc2F)OC1=O)S(=O)(=O)C(F)(F)F (centres unmarked) [Compound 1-255]
[2]
  Lindernia procumbens post (herbicidal effect): 5 (100% herbicidal effect, phytotoxicity)
[4]
  Lindernia procumbens pre (herbicidal effect): 5 (100% herbicidal effect, phytotoxicity)

## CCOCN(c1ccccc1CN1CCC(c2ccccc2Cl)OC1=O)S(=O)(=O)C(F)(F)F (centres unmarked) [Compound 1-314]
[2]
  Lindernia procumbens post (herbicidal effect): 5 (100% herbicidal effect, phytotoxicity)
[3]
  Scirpus juncoides pre (herbicidal effect): 4 (90%-99% herbicidal effect, phytotoxicity)
[4]
  Lindernia procumbens pre (herbicidal effect): 5 (100% herbicidal effect, phytotoxicity)

## CN(c1ccccc1CN1CCC(c2ccccc2)(c2ccccc2)OC1=O)S(=O)(=O)C(F)(F)F [Compound 1-224]
[4]
  Lindernia procumbens pre (herbicidal effect): 4 (90%-99% herbicidal effect, phytotoxicity)

## CCOCN(c1ccccc1CN1CCC(c2c(C)cccc2C)OC1=O)S(=O)(=O)C(F)(F)F (centres unmarked) [Compound 1-369]
[1]
  Scirpus juncoides post (herbicidal effect): 4 (90%-99% herbicidal effect, phytotoxicity)
[2]
  Lindernia procumbens post (herbicidal effect): 5 (100% herbicidal effect, phytotoxicity)
[4]
  Lindernia procumbens pre (herbicidal effect): 5 (100% herbicidal effect, phytotoxicity)

## CN(c1ccccc1CN1CCC(c2c(Cl)cccc2Cl)OC1=O)S(=O)(=O)C(F)(F)F (centres unmarked) [Compound 1-279]
[1]
  Scirpus juncoides post (herbicidal effect): 4 (90%-99% herbicidal effect, phytotoxicity)
[2]
  Lindernia procumbens post (herbicidal effect): 5 (100% herbicidal effect, phytotoxicity)
[4]
  Lindernia procumbens pre (herbicidal effect): 5 (100% herbicidal effect, phytotoxicity)

## CN(c1ccccc1CN1CCC(c2ccccc2Cl)OC1=O)S(=O)(=O)C(F)(F)F (centres unmarked) [Compound 1-312]
[2]
  Lindernia procumbens post (herbicidal effect): 5 (100% herbicidal effect, phytotoxicity)
[4]
  Lindernia procumbens pre (herbicidal effect): 5 (100% herbicidal effect, phytotoxicity)

## O=C1OC(c2c(F)cccc2F)CCN1Cc1ccccc1NS(=O)(=O)C(F)(F)F (centres unmarked) [Compound 1-349]
[2]
  Lindernia procumbens post (herbicidal effect): 5 (100% herbicidal effect, phytotoxicity)
[3]
  Scirpus juncoides pre (herbicidal effect): 5 (100% herbicidal effect, phytotoxicity)
[4]
  Lindernia procumbens pre (herbicidal effect): 5 (100% herbicidal effect, phytotoxicity)

## Cc1ccccc1C1CCN(Cc2ccccc2N(C)S(=O)(=O)C(F)(F)F)C(=O)O1 (centres unmarked) [Compound 1-290]
[1]
  Scirpus juncoides post (herbicidal effect): 4 (90%-99% herbicidal effect, phytotoxicity)
[2]
  Lindernia procumbens post (herbicidal effect): 5 (100% herbicidal effect, phytotoxicity)
[4]
  Lindernia procumbens pre (herbicidal effect): 5 (100% herbicidal effect, phytotoxicity)

## CN(c1ccccc1CN1CCC(C)(c2ccccc2)OC1=O)S(=O)(=O)C(F)(F)F (centres unmarked) [Compound 1-167]
[3]
  Scirpus juncoides pre (herbicidal effect): 4 (90%-99% herbicidal effect, phytotoxicity)

## CC(C)COC(=O)N(c1ccccc1CN1CCC(c2ccccc2)OC1=O)S(=O)(=O)C(F)(F)F (centres unmarked) [Compound 1-244]
[2]
  Lindernia procumbens post (herbicidal effect): 5 (100% herbicidal effect, phytotoxicity)
[4]
  Lindernia procumbens pre (herbicidal effect): 5 (100% herbicidal effect, phytotoxicity)

## O=C1OCCCN1Cc1ccccc1NS(=O)(=O)C(F)(F)F [Compound No. 1-1, 3-[2-(trifluoromethanesulfonylamino)benzyl]-[1,3]-oxazinan-2-one]
[1]
  Scirpus juncoides post (herbicidal effect): 4 (90%-99% herbicidal effect, phytotoxicity)
[3]
  Scirpus juncoides pre (herbicidal effect): 4 (90%-99% herbicidal effect, phytotoxicity)
[4]
  Lindernia procumbens pre (herbicidal effect): 4 (90%-99% herbicidal effect, phytotoxicity)

## CN(c1ccccc1CN1CCC(c2ccccc2F)OC1=O)S(=O)(=O)C(F)(F)F (centres unmarked) [Compound 1-257]
[2]
  Lindernia procumbens post (herbicidal effect): 5 (100% herbicidal effect, phytotoxicity)
[3]
  Scirpus juncoides pre (herbicidal effect): 4 (90%-99% herbicidal effect, phytotoxicity)
[4]
  Lindernia procumbens pre (herbicidal effect): 5 (100% herbicidal effect, phytotoxicity)

## CCC1(c2ccccc2)CCN(Cc2ccccc2N(C)S(=O)(=O)C(F)(F)F)C(=O)O1 (centres unmarked) [Compound 1-323]
[2]
  Lindernia procumbens post (herbicidal effect): 5 (100% herbicidal effect, phytotoxicity)
[4]
  Lindernia procumbens pre (herbicidal effect): 5 (100% herbicidal effect, phytotoxicity)
